pEC50: −log10 of the molar value. Where two headings read alike, the source gives them in different places.
Legend:
[1] = J774-Dual cytotoxicity; assay type: cell-based, mouse; details: mouse, J774-Dual cells, read-out: J774 cytotox CC50
Protocol: The OTRADI Small Molecule Library of approximately 246,000 diverse compounds (see below for description) was screened using the THP1-Dual based HTS platform described above. All transfer steps in the screen are fully automated, thus reducing variability. Primary screening included a single data point or dose for each molecule. After data normalization was applied for each assay run, “hit” selection was performed on the plates that pass the quality control (QC) criterion. Hits were defined as samples having values above the activity cutoff determined based on noise level of the assay to reduce false positive rates. […] The ratio of ISRE:NFκB activity was also calculated as a selectivity index for prioritizing hit selection. Primary hits underwent secondary screening to determine the 50% effective concentration (EC50) and 50% cytotoxic concentration (CC50) of these agents using an 8-point dose-response curve in the human THP1-Dual cells. Cytotoxicity was measured in the plate using Cell Titer Glo (Promega). Identified candidate compounds were further screened (orthogonal screen) for cross species activity in the validated mouse J774-Dual assay using an 8-point dose-response format to determine EC50 and CC50 values as well as ISRE:NFκB ratios. A general process flow for the experimental design laid out above is depicted at FIG. 12.

[2] = test system: IRF-Lucia luciferase reporter (ISRE) in THP1-Dual cells; assay: THP1-Dual IRF-Lucia luciferase reporter assay (ISRE activation); assay type: cell-based, human; details: THP1-Dual; for pEC50: Homo sapiens, read-out: THP1 IRF EC50
Protocol: THP1 Dual (InvivoGen) cell suspensions were cultured in RPMI 1640 (Hyclone, Logan, Utah) supplemented with 10% fetal bovine serum (Hyclone), 100 U/mL Normocin (Invivogen), and 50 U/mL PenStrep (Gibco, Dublin, Ireland) between a density of 7·10^5-2·10^6 cells/mL. Every other passage, media was supplemented with 5 U/mL Blasticidin and 100 U/mL Zeocin to maintain the expression constructs. White, flat-bottom 384-well plates (Greiner, Kremsmunster, Austria, 781080) were seeded with 2.5·10^4 cells/well in a total of 50 μL media containing 5 ng/mL phorbolmyristic acid (PMA) using a Matrix WellMate (Thermo Scientific) dispenser. After 48 hours of incubation at 37° C., media was removed using a BioTek ELx405 CW plate washer set to aspirate and wash each well three times with 65 μL 1×PBS. Plates were reloaded with 50 μL media without PMA and treatments added. Lipopolysaccharide in dimethylsulfoxide (DMSO) was transferred to control wells using a HP D300 microdispenser to a final concentration of 313 ng/mL. Compounds from chemical library plates were copied using a Sciclone (Caliper LifeSciences) mounted with a 384-pin transfer tool to obtain a final concentration of 10 μM. After incubation with treatments for 24 hours, 10 μL of supernatant media from each well was transferred into a white, flat-bottom 384-well plate for luminescence readout and a black-walled, clear flat-bottom 384-well plate for absorbance readout.
Specifically, to enable screening of novel chemical entities (NCEs) in a larger screening effort, a robust high-throughput cell-based assay system for primary hit identification of ISRE activators based on the above-mentioned target validation was desired. Human ISRE activity was verified using a THP-1 monocyte line containing the NF-κB-SEAP and IRF-Lucia luciferase dual reporter (THP1-Dual; Invivogen) that features two reporter genes, SEAP (secreted embryonic alkaline phosphatase) and Lucia luciferase, thereby enabling the simultaneous study of the NF-κB and IRF signalling pathways. The Lucia luciferase reporter is under the control of an ISG54 (interferon-stimulated gene) minimal promoter in conjunction with five IFN-stimulated response elements. The SEAP gene is driven by an IFN-β minimal promoter fused to five copies of the NF-κB consensus transcriptional response element and three copies of the c-Rel binding site. Both reporter proteins are readily measurable in the cell culture supernatant when using QUANTI-LUC™ and QUANTI-Blue SEAP detection reagents.
The responsiveness of the human THP-1 Dual cell line was evaluated in an array of assay conditions to obtain sensitive and reproducible results for the activation of IRF and NF-κB reporters. […] All transfer steps are fully automated using high throughput robotic equipment. Briefly, cells are seeded in differentiation medium using a Matrix WellMate fitted with the WellMate Stacker (Thermo Scientific) and incubated at 37° C. with 5% CO2 for 48 h. Following differentiation, cells are washed using a BioTek ELx405 Select CW plate washer and growth medium added with the Matrix WellMate. Programmed control treatments are added to wells using a D300 digital dispenser fitted with T8+ dispense heads (Hewlett Packard) designed to dispense nanoliter quantities of material. Compounds from library plates are added using a pin tool fitted to a Sciclone ALH 3000 Workstation (Caliper Life Sciences) programmed with Maestro v4.4. After treatment, plates are returned to incubators for 24 hours. To measure reporter expression, supernatant is collected using the Sciclone and dispensed into 2 plates: 1) a white 384-well assay plate for Lucia luminescence measurements and 2) a clear-bottom black 384-well assay plate for SEAP absorbance measurements.

[3] = test system: IRF-Lucia luciferase reporter (ISRE) in J774-Dual cells; assay: J774-Dual IRF-Lucia luciferase reporter assay (ISRE activation); assay type: cell-based, mouse; details: for pEC50: Mus musculus, read-out: J774 IRF EC50
Protocol: First, optimal assay conditions and assay quality in 384-well format were determined. As mentioned, the mouse macrophage J774 cell line (J774-Dual, InvivoGen) stably transfected with the same inducible reporters described above (e.g., IRF-Lucia luciferase and NF-κB-SEAP) was used. The responsiveness of the J774-Dual cell line was investigated in an array of assay conditions to obtain sensitive and reproducible results for the activation of the IRF and NF-κB reporters. An optimal plating density and conditions for these cells was established for these cells in a 384-well format. Assay work-flow is similar to that discussed above for the THP1-Dual assay without a need for cell differentiation. Thus, cells are seeded directly in growth medium and incubated at 37° C. in a 5% C02 incubator for 24 hours prior to the programmed treatments being added as described herein.
The primary high throughput screen used the HTS platform of human THP1 monocyte cells containing the IRF-Lucia luciferase and NFκB-SEAP (secreted embryonic alkaline phosphatase) dual reporter (THP1-Dual, Invivogen), enabling the simultaneous study of the IRF and NFκB signaling pathways respectively. As discussed, the Lucia luciferase reporter gene is under the control of an ISG54 (interferon-stimulated gene) minimal promoter in conjunction with five interferon-stimulated response elements (ISRE). The SEAP gene is driven by an IFNβ minimal promoter fused to five copies of the NFκB consensus transcriptional response element and three copies of the c-Rel binding site. Both IRF-Lucia luciferase and NFκB-SEAP reporter proteins are secreted and readily measurable in the cell culture supernatant when using QUANTI-Luc™ and QUANTI-Blue™ detection reagents, respectively. Identified “hits” were confirmed in a secondary screen with an 8-point dose response curve. Hits were further screened for activity in the mouse using the mouse J774 macrophage-like cell line containing the identical reporter constructs (J774-Dual, Invivogen).
(§1) The OTRADI Small Molecule Library of approximately 246,000 diverse compounds (see below for description) was screened using the THP1-Dual based HTS platform described above. All transfer steps in the screen are fully automated, thus reducing variability. Primary screening included a single data point or dose for each molecule. After data normalization was applied for each assay run, “hit” selection was performed on the plates that pass the quality control (QC) criterion. Hits were defined as samples having values above the activity cutoff determined based on noise level of the assay to reduce false positive rates. In the pilot study discussed above this activity value was >3σ above the ISRE mean with the added criteria of NFκB activation being lower than […] from the mean to identify IRF selective compounds. The ratio of ISRE:NFκB activity was also calculated as a selectivity index for prioritizing hit selection. Primary hits underwent secondary screening to determine the 50% effective concentration (EC50) and 50% cytotoxic concentration (CC50) of these agents using an 8-point dose-response curve in the human THP1-Dual cells. Cytotoxicity was measured in the plate using Cell Titer Glo (Promega). Identified candidate compounds were further screened (orthogonal screen) for cross species activity in the validated mouse J774-Dual assay using an 8-point dose-response format to determine EC50 and CC50 values as well as ISRE:NFκB ratios. A general process flow for the experimental design laid out above is depicted at FIG. 12.

[4] = THP1-Dual cytotoxicity (Cell Titer Glo, ATP); assay type: cell-based, human; details: human, THP1-Dual cells, read-out: Thp1 cytotox CC50
Description: FIG. 9C is a CC50 (50% cytotoxic concentration) graph of AV-C dependent IRF activation in THP1-Dual cells, determined with an 8-point dose response experiment. Cell viability was monitored based on quantitation of ATP present, as an indicator of metabolically active cells, where luminescence is proportional to the amount of ATP present, using Cell-Titer Glo (Promega).
as §1

[5] = Human Reporter Cell Line, 8-point dose response
[6] = J774, Mouse Reporter Cell Line, 8-point dose response
[7] = Mouse Reporter Cell Line J774, at peak
[8] = J774, Mouse Reporter Cell Line J774

| SMILES | pEC50 [2, 5] | pEC50 ([2]; Human Reporter Cell Line THP1) | CC50 ([1]; Mouse Reporter Cell Line) [µM] | CC50 ([4]; Human Reporter Cell Line) [µM] | CC50 ([1]; Mouse Reporter Cell Line J774) [µM] | CC50 ([4]; Human Reporter Cell Line THP1) [µM] | further results |
| --- | --- | --- | --- | --- | --- | --- | --- |
| O=C(Nc1ccc(N2CCN(C(=O)c3cccs3)CC2)cc1)c1ccc2ccccc2c1 [NA-7] | 5.41 |  | > 25 | > 25 |  |  | J774 IRF % activation at peak ([3]; Mouse Reporter Cell Line): 5.638%; pEC50 [3, 6]: 5.36 |
| Cc1ccc(-c2nc3cc(OCCCCl)ccc3o2)cc1[N+](=O)[O-] [ND-81] |  |  |  |  | > 25 | > 25 | J774 IRF % activation at peak [3, 7]: 23.19%; pEC50 [3, 8]: ~5.01 |
| Cc1cccc(C(=O)Nc2ccc(N3CCN(C(=O)c4cccs4)CC3)cc2)c1C [NA-6] | 5.13 |  | > 25 | > 25 |  |  | J774 IRF % activation at peak ([3]; Mouse Reporter Cell Line): 22.78%; pEC50 [3, 6]: 4.88 |
| COc1ccc(NC(=O)c2cc(NC(=O)c3cccs3)ccc2N2CCOCC2)cc1Cl [NB-22] |  | 5.49 |  |  | > 25 | > 25 | J774 IRF % activation at peak [3, 7]: 24.91%; pEC50 [3, 8]: 4.19 |
| Cc1ccc(-c2nc3cc(OCCCN4CCCC4)ccc3o2)cc1N [ND-82] |  |  |  |  | > 25 | > 25 | J774 IRF % activation at peak [3, 7]: 22.57%; pEC50 [3, 8]: ~5.03 |
| CC(C)c1ccc(C(=O)Nc2ccc(N3CCN(C(=O)c4ccco4)CC3)cc2)cc1 [NA-4] | ~4.88 |  | > 25 | 37.8 |  |  |  |
| NC(=O)c1cc(NC(=O)c2ccccc2)ccc1N1CCOCC1 [NB-4] |  | ~4.14 |  |  | > 25 | > 25 | activation at 25 µM ([2]; 24 h, Human Reporter Cell Line THP1, @25 uM, read-out: THP1 IRF % activation at peak): 5.61% |
| COC(=O)c1ccc(N2CCN(C(=O)c3cccs3)CC2)cc1 [NA-47] | 6.45 |  | > 25 | > 25 |  |  |  |
| COc1ccc(C(=O)Nc2ccc(N3CCN(C(=O)c4cccs4)CC3)cc2)cc1[N+](=O)[O-] [NA-46] | 6.96 |  | > 25 | > 25 |  |  |  |
| O=C(Nc1ccc(N2CCN(C(=O)c3cccs3)CC2)cc1)c1ccc(Br)c2ncccc12 [NA-18] | 5.51 |  | > 25 | > 25 |  |  |  |

More lines, main results first:

| pEC50 [2, 5] | pEC50 ([2]; Human Reporter Cell Line THP1) | SMILES | CC50 ([1]; Mouse Reporter Cell Line) [µM] | CC50 ([4]; Human Reporter Cell Line) [µM] | CC50 ([1]; Mouse Reporter Cell Line J774) [µM] | CC50 ([4]; Human Reporter Cell Line THP1) [µM] | further results |
| --- | --- | --- | --- | --- | --- | --- | --- |
|  | ~5.52 | CCOc1ccc(C(=O)Nc2cc(-c3nc4ncccc4o3)ccc2C)cc1[N+](=O)[O-] [ND-48] |  |  | > 25 | 7.26 | J774 IRF % activation at peak [3, 7]: 4.4%; pEC50 [3, 8]: 5.00 |
| 5.01 |  | COC(=O)COc1cccc(NC(=O)c2cccc(NC(=O)c3cccs3)c2)c1 [NC-4] | > 25 | > 25 |  |  | J774 IRF % activation at peak ([3]; Mouse Reporter Cell Line): 6.428%; pEC50 [3, 6]: ~5.23 |
|  | ~5.20 | COc1ccc(C(=O)Nc2cc(-c3nc4cc(C)c(C)cc4o3)ccc2C)cc1N [ND-60] |  |  | > 25 | > 25 |  |
|  | ~4.92 | COc1ccc(C(=O)Nc2cc(-c3nc4cc(C)c(C)cc4o3)ccc2Cl)cc1[N+](=O)[O-] [ND-50] |  |  | > 25 | > 25 |  |
|  | 4.93 | COc1cc(C(=O)Nc2cc(-c3nc4ccccc4s3)ccc2C)cc(OC)c1OC [ND-37] |  |  | > 25 | > 25 |  |
|  | ~5.09 | Cc1cc2nc(-c3ccc(C)c(NC(=O)c4cccc([N+](=O)[O-])c4)c3)oc2cc1C [ND-36] |  |  | > 25 | > 25 |  |
|  | ~5.50 | Cc1ccc2nc(-c3ccc(C)c(NC(=O)c4ccc(C)c([N+](=O)[O-])c4)c3)oc2c1 [ND-31] |  |  | > 25 | 22.3 |  |
| 5.59 |  | COC(=O)COc1cccc(NC(=O)c2ccc(NC(=O)c3ccco3)cc2)c1 [NC-1] | > 25 | 27.4 |  |  |  |
|  | 5.50 | Cc1ccc(-c2nc3ncccc3o2)cc1NC(=O)c1cc(Br)ccc1Cl [ND-3] |  |  | > 25 | 30.7 |  |
|  | ~4.94 | Cc1cc2nc(-c3ccc(C)c(NC(=O)c4ccc(N5CCCC5)c([N+](=O)[O-])c4)c3)oc2cc1C [ND-34] |  |  | > 25 | > 25 |  |
|  | 5.69 | COc1ccc(C(=O)Nc2cccc(-c3nc4ncccc4o3)c2)cc1[N+](=O)[O-] [ND-41] |  |  | > 25 | > 25 |  |
